Data as given in patent US7094869B2, “Low molecular weight peptidomimetic growth hormone secretagogues” (Genentech, Inc., priority 1994, dated 2006).
“Also recorded” adds a separate entry of the source.

How the values were obtained:
LH = LH release from pituitary cells (RIA); type: cell-based, rat; conditions: 100 nM; listed as (inip)-bbFK-NH2
Method: (§1) Dispersion: Adult female Sprague-Dawley (160-180 g., Charles River) rats were group-caged in a 12:12 light:dark cycle with food and water available ad libitum. Pituitaries from ten rats were removed, the posterior pituitary discarded and the anterior pituitary placed in Hanks' Balanced Salt Solution (HBSS: without calcium chloride, w/o magnesium chloride, w/o magnesium sulfate; Gibco) containing 20 mM HEPES (Gibco) and 100 U/ml penicillin streptomycin (PS: JRH Biosciences). Under sterile conditions, pituitaries were rinsed twice then minced into small fragments with a razor blade. Fragments were resuspended in 5 ml of HBSS/HEPES containing 20 mg collagenase (Serva 17449) and […] of 1 mg/ml DNase (Sigma) for a 40 min. incubation in a 37° C. gyrotory water bath shaker (New Brunswick Scientific Model G76; setting 10). […] The cells were centrifuged 1000× g for 5 min, resuspended, counted and plated at a final cell concentration of 100,000 cells/ml. […] STATISTICS: The mean for each group was determined and analyzed by one-way analysis of variance with a post-hoc Student-Newman-Keuls. […] The EC50 was calculated using a 4-parameter curve-fit program (Kaleidagraph). […] RIA of pituitary hormones: LH, FSH, TSH, and Prolactin were determined with commercially available kits from Amersham, and ACTH levels were determined by a RIA kit from ICN. […]

FSH = FSH release from pituitary cells (RIA); type: cell-based, rat; conditions: 100 nM; listed as (inip)-bbFK-NH2
Method: as §1

growth hormone secretion = assay: GHRP induced growth hormone secretion, intravenous administration (Rat IV); type: in vivo
Summary of the method: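 Female Sprague Dawley rats (24-30 days, 50-90 g) under intraperitoneal pentobarbitone received graded intravenous tail-vein peptide doses in pH 5.0 sodium acetate/mannitol buffer 20 min post-anaesthesia. Blood by cardiac puncture 10 min after dosing; serum GH measured by rat GH ELISA in duplicate.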

TSH = TSH release from pituitary cells (RIA); type: cell-based, rat; conditions: 100 nM; listed as (inip)-bbFK-NH2
Method: as §1

rat pituitary cells = rat pituitary cells (Rattus norvegicus, UniProt O08725); assay: Rat “pit” cell challenges: combinations with GHRP-6/GHRH, desensitization, somatostatin suppression, GHRP antagonist; type: cell-based
Chain of rat pituitary cells (O08725 whole entry): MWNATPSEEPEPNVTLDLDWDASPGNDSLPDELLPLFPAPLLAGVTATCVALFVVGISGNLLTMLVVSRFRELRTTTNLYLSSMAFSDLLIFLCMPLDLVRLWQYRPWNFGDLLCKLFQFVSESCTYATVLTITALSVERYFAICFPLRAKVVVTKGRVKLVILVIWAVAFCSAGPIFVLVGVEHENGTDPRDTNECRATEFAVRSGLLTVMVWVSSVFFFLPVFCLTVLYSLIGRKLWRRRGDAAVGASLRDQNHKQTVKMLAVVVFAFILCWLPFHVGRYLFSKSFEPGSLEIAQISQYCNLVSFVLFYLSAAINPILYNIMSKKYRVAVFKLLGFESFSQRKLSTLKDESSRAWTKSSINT
Method: Dispersion: Adult female Sprague-Dawley (160-180 g., Charles River) rats were group-caged in a 12:12 light:dark cycle with food and water available ad libitum. Pituitaries from ten rats were removed, the posterior pituitary discarded and the anterior pituitary placed in Hanks' Balanced Salt Solution (HBSS: without calcium chloride, w/o magnesium chloride, w/o magnesium sulfate; Gibco) containing 20 mM HEPES (Gibco) and 100 U/ml penicillin streptomycin (PS: JRH Biosciences). Under sterile conditions, pituitaries were rinsed twice then minced into small fragments with a razor blade. Fragments were resuspended in 5 ml of HBSS/HEPES containing 20 mg collagenase (Serva 17449) and 200 ml of 1 mg/ml DNase (Sigma) for a 40 min. incubation in a 37° C. gyrotory water bath shaker (New Brunswick Scientific Model G76; setting 10). After the incubation, fragments were triturated to yield small clumps and single cells. The cells were centrifuged 1000× g for 5 min, resuspended, counted and plated at a final cell concentration of 100,000 cells/ml. Incubation media was DME low glucose media w/NaHCO3 (Gibco) containing 20 mM hepes, 100 U/ml PS and 10% FBS (Hyclone A-111-L). Cells were plated at 0.5 ml per well in 48 well plates (Falcon) and incubated at 37° C. in 5% C02 for three days. […] The highest concentration of DMSO in media was 0.1%. Stock solutions (1 mM) of rat GHRH, somatostatin (Sigma) and GHRP antagonist HwkWfK were made fresh in media and diluted appropriately. The media used in all challenges and washing steps was DME low glucose with 20 mM Hepes, 100 U/ml PS, 10% FBS. Media was warmed to 37° C. and gassed by placing it into the incubator prior to challenge. On day three, the media was discarded and fresh media (approximately 1 ml) added for the first of three washes. After the last wash, the plate was placed back in the incubator for a 15 min pre-incubation. Then cells were washed 2× (with warmed and gassed media) and fresh 0.5 ml media were added for the second 15 min. pre-incubation. After the second pre-incubation cells were washed 2× as above and 0.5 ml of control and test solutions were added for a final 15 min incubation. After this incubation, the media were removed for subsequent GH ELISA. GH ELISA: A two-site ELISA was used to determine rat GH concentration in the media. Briefly, goat anti-rat GH antibody (lot#19164-20) was used to coat Nunc immunoplates overnight. After blocking and washing, standard (rat GH reference preparation: Parlow) and challenge media is diluted 1:20 prior to GH assay were added for a 1 hr room temperature incubation. STATISTICS: The mean for each group was determined and analyzed by one-way analysis of variance with a post-hoc Student-Newman-Keuls. Significance is defined as P<0.05. The EC50 was calculated using a 4-parameter curve-fit program (Kaleidagraph). Three to four independent EC50s were used to derive the mean and SEM.

NCCCC[C@H](NC(=O)[C@H](Cc1ccccc1)NC(=O)[C@@H](Cc1ccc2ccccc2c1)NC(=O)[C@@H](Cc1ccc2ccccc2c1)NC(=O)C1CCNCC1)C(N)=O [(inip) b b F K amide, (inip)-DβNal-DβNal-Phe-Lys-amide]
LH release (LH): had no effect on these hormone concentrations; also recorded: unchanged
FSH release (FSH): had no effect on these hormone concentrations; also recorded: unchanged
RAT IV ED50 (growth hormone secretion; Table III, iv injection, serum GH 10 min after injection): 0.2 µg
ED50 for induction of GH secretion (growth hormone secretion; acute intravenous injection, 80 gram rats, doses 1.0, 0.2, 0.04 μg/injection): 0.2 μg/rat
TSH release (TSH): had no effect on these hormone concentrations; also recorded: unchanged
increase in GH levels over control (rat pituitary cells; 100 nM): 3 fold
GH release in combination with GHRH (rat pituitary cells; GHRP 100 nM plus GHRH 10 or 100 nM, listed as (inip)-bbFK-NH2): show synergy with 10 nM GHRH; also recorded: showed synergy with GHRH
GH release in combination with GHRP-6 (rat pituitary cells; both at 100 nM, listed as (inip)-bbFK-NH2): no additional or synergistic increase was observed; also recorded: no additional increase was observed
GH release in the presence of 20 nM somatostatin (rat pituitary cells; coincubation with 20 nM somatostatin, listed as (inip)-bbFK-NH2): suppressed this enhanced release
GH release after sequential 15 min incubations with fresh compound (desensitization) (rat pituitary cells; three sequential 15 min incubations, 100 nM): no significant GH release compared to control
